{"source": "patent US10206878B2", "about": "“Lyophilized formulation of TAT-NR2B9C with acetylation scavenger” (NoNO Inc., priority 2014, dated 2019)", "experiment": "Solubility study of TAT-NR2B9C, visual analysis", "type": "physicochemical", "details": "pH 6.5, 35, 50, 75 and 100 mg/mL, t=0 and t=24 hours", "experimental": "Due to the relatively low Tg temperatures that would likely require a longer lyophilization cycle to dry, we looked at a wider range of standard bulking agents and looked to reduce the fill volume into the container closure system so that there would be a reduced volume of liquid to lyophilize. […] Samples were visually analyzed at 35, 50, 75 and 100 mg/mL. All solutions were clear at t=0 and t=24 hours. […] A wide range of quantities may be required in a vial, but 270 mg would provide a […] dose for a 100 kg patient. Assuming the target reconstitution concentration for patient administration is still 20 mg/mL (but can be from 1 mg/ml to 100 mg/ml), then a 20-mL lyophilization vial containing 270 mg of TAT-NR2B9C can be used with a reconstitution volume of 13.5 mL. Therefore, optimal volumes of liquid for lyophilization of TAT-NR2B9C in the vial would be between 2.5 mL and 10 mL.", "note": "No end group written: not given here.", "data": [{"sequence": "YGRKKRRQRRRKLSSIESDV [TAT-NR2B9C]", "values": [{"measurement": "solubility, visual", "setting": "in Histidine+Trehalose", "result": "clear"}, {"measurement": "solubility, visual", "setting": "in Histidine", "result": "clear"}]}]}
